Patent US20220370470A1 (WisTa Laboratories Ltd., priority 2019, published 2022)
Counter-ions that a name gives are not always drawn.

Assays:
[1] = system: ACh levels in the hippocampus; assay: Hippocampal ACh levels with scopolamine blocking M2/M4 negative feedback receptors; assay type: in vivo, wild type mice
α-synuclein = assay: Immunohistochemistry of α-synuclein, wild-type mice; assay type: in vivo; parameters: key: ‘—’ indicates no effect; conditions: LMTM 5 or 15 mg/kg/day alone or following chronic rivastigmine 0.1 or 0.5 mg/kg/day, approximate rounded percentages
Experimental: (§1) Wild-type and L1 mice (n=7-16 for each group) were pre-treated with rivastigmine (0.1 or 0.5 mg/kg/day) or memantine (2 or 20 mg/kg/day) or vehicle for 5 weeks by gavage. For the following 6 weeks, LMTM (5 and 15 mg/kg) or vehicle were added to this daily treatment regime, also by gavage. Animals were tested behaviourly during weeks 10 and 11 using a problem solving task in the open field water maze and then sacrificed for immunohistochemical and other tissue analyses.
(§2) Translating doses from mice to humans requires consideration of a number of factors. […] The higher dose of 15 mg/kg/day is generally required for LMTM to be fully effective in the L1 mouse model (Melis et al., 2015a). […] Tissue sectioned for immunohistochemistry was labelled with antibody and processed using Image J to determine protein expression densitometrically. Data are presented as Z-score transformations without units.

synaptophysin = assay: Immunohistochemistry of synaptophysin, wild-type mice; assay type: in vivo
Experimental: FIG. 1. Treatment effects of LMTM alone or following chronic pretreatment with rivastigmine in wild-type mice on hippocampal levels of acetylcholine (A) or synaptophysin levels measured immunohistochemically as the mean in hippocampus, visual cortex, diagonal band and septum (B). (**, p<0.01; ***, p<0.001).
as §1, §2

wild-type mice = assay: Behaviour, problem solving task in the open field water maze, wild-type mice; assay type: in vivo; conditions: LMTM 5 or 15 mg/kg/day alone or following chronic rivastigmine 0.1 or 0.5 mg/kg/day, approximate rounded percentages
Experimental: as §1

mitochondrial complex IV = assay: Mitochondrial complex IV activity, wild-type mice; assay type: in vivo; conditions: LMTM 5 or 15 mg/kg/day alone or following chronic rivastigmine 0.1 or 0.5 mg/kg/day, approximate rounded percentages
Experimental: as §1

[2] = system: SNARE complex proteins (SNAP25, syntaxin and VAMP2); assay: Immunohistochemistry of SNARE complex proteins, wild-type mice; assay type: in vivo; parameters: key: ‘—’ indicates no effect; conditions: LMTM 5 or 15 mg/kg/day alone or following chronic rivastigmine 0.1 or 0.5 mg/kg/day, approximate rounded percentages
Experimental: as §1, §2

[3] = system: acetylcholine (ACh) levels in hippocampus; assay: ACh levels in hippocampus, microdialysis probe and HPLC, wild-type mice; assay type: in vivo
Experimental: For measurement of acetylcholine (ACh) levels in hippocampus, animals (wild-type or L1) were treated with LMTM (5 mg/kg/day for 2 weeks) after prior treatment for 2 weeks with or without rivastigmine (0.5 mg/kg/day). Rivastigmine was administered subcutaneously with an Alzet minipump whereas LMTM was administered by oral gavage. Levels of ACh were measured in hippocampus using an implanted microdialysis probe and HPLC analysis of the extracellular fluid.
Data are presented as group averages and standard errors of mean and were analysed using parametric statistics, with alpha set to 0.05.

Row | SMILES | rise in ACh levels ([1]; hippocampus, scopolamine 1 μM added to the perfusion fluid containing 100 nanomolar rivastigmine) | α-Synuclein (α-synuclein) | change in mean synaptophysin levels (synaptophysin; LMTM given against a background of prior treatment with rivastigmine) | increase in mean synaptophysin levels (synaptophysin; hippocampus, visual cortex, diagonal band and septum, LMTM treatment alone) | Behaviour (wild-type mice) | Mitochondrial complex IV (mitochondrial complex IV) | SNARE complex [2] | reduction in basal ACh levels in hippocampus ([3]; LMTM after prior treatment with rivastigmine (0.5 mg/kg/day)) | increase in basal ACh levels in hippocampus ([3]; LMTM treatment alone (5 mg/kg/day for 2 weeks), significant) | increase in ACh levels in scopolamine experiments ([1]; wild type mice, scopolamine blocking M2/M4 negative feedback receptors, 100 nanomolar rivastigmine in perfusion fluid)
1 | CN1[C@@H]2C[C@@H](OC(=O)[C@H](CO)c3ccccc3)C[C@H]1[C@@H]1O[C@@H]12 [scopolamine, reference compound] | 3-5 fold |  |  |  |  |  |  |  |  | 
2 | CN(C)c1ccc2c(c1)Sc1cc(N(C)C)ccc1N2 [LMTM, hydromethylthionine mesylate] |  | — | statistically significant reduction of the same magnitude | 3 fold | not associated with improvement in spatial recognition memory and — | did not show any increase and — | — | 30% | 2 fold | less than that seen with rivastigmine alone
